Laboratory results published in patent US9018206B2, “Carboxamide compounds and their use as calpain inhibitors” (AbbVie Deutschland GmbH & Co. KG, priority 2009, dated 2015).

Columns and labels:
[1] = Assay for determining cytosolic clearance, cynomolgus monkey liver cytosol; assay type: in vitro ADME; conditions: 0.5 μM compound, 1 mg/ml cynomolgus monkey liver cytosol, 37° C., pH 7.5
Protocol: (§1) For comparison purposes data measured with human liver cytosol were contrasted with those obtained with cynomolgus monkey liver cytosol.
(§2) 0.5 μM of a compound to be tested was incubated with 1 mg/ml of human liver cytosol as well as monkey liver cytosol at 37° C. in 0.5 M of phosphate buffer at pH 7.5 while shaking (commercial sources: female cynomolgus liver cytosol from Tebu bio, human liver cytosol from BDgentest).
(§3) In each case aliquots of 65 μl were taken after 0, 5, 10 and 15 min and transferred into wells of a wellplate which were immediately filled with 130 μl of ethanol to stop the reaction. The samples were kept frozen until analysis on a LC/MS/MS system (Applied Biosystems SCIEX 4000).
(§4) Read out parameters were the loss of parent compounds, from which the half life periods (T1/2) were calculated from.
(§5) To assess the stability of the compounds tested the clearance ranges were adjusted to the hepatic plasma flow of the different species according to the following scheme:
(§6) stable=from 0 to about ⅓ of the hepatic plasma flow;
(§7) moderately stable=from about ⅓ to about ⅔ of the hepatic plasma flow;
(§8) instable=more than ⅔ of the hepatic plasma flow.
(§9) Based on this adjustment the following qualifiers were assigned to evaluate the cytosolic stabilities of the compounds tested: […]

[2] = target: T1, calpain-I isolated from human erythrocytes (Homo sapiens, UniProt P07384); experiment: Calpain I enzyme inhibition in vitro (kinetic fluorescence assay); assay type: biochemical; conditions: apparent Ki from IC50 (Cheng-Prussoff); 20 nM calpain-I, 100 μM Suc-Leu-Tyr-AMC, pH 7.3, room temperature
T1 construct: calpain-I—isolated from human erythrocytes; purchased Calbiochem 208713; host or cells: human erythrocytes (tissue-derived)
T1 sequence (P07384 1-714): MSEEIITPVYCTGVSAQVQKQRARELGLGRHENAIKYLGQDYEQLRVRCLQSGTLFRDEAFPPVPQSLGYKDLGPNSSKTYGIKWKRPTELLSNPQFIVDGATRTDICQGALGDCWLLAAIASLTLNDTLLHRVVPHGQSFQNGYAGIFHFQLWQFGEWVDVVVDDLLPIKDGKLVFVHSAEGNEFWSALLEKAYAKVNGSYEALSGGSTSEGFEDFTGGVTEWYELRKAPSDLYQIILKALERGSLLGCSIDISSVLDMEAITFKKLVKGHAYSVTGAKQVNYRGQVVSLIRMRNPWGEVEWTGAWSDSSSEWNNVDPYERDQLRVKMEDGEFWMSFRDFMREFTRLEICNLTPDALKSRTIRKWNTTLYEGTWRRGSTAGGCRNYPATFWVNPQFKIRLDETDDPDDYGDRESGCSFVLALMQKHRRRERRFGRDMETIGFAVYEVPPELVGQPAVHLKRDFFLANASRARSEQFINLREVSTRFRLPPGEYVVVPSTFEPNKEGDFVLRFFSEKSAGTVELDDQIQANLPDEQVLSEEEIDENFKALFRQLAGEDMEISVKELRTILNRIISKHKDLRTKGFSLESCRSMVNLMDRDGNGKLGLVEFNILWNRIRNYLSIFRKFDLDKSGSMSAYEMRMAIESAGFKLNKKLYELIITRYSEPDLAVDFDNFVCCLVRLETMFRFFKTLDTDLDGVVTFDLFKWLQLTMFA
T1 sequence (P04632 1-268 partner): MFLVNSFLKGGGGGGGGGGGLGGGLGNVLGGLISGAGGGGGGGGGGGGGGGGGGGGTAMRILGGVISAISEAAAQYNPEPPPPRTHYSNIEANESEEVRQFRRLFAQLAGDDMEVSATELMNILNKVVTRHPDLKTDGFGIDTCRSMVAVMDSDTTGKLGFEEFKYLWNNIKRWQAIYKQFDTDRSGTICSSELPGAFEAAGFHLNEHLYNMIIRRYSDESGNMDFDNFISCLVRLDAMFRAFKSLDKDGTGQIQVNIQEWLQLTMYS
How it was run: (§10)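 Kinetic AMC fluorescence (ex 390/em 460 nm), room temperature. Calpain-I 20 nM, 100 μM Suc-Leu-Tyr-AMC, imidazole/CaCl2 pH 7.3; cathepsins B 0.25 nM/100 μM Z-Phe-Arg-AMC, K 3 nM/10 μM Z-Gly-Pro-Arg-AMC, S 0.5 nM/20 μM Z-Val-Val-Arg-AMC, each MES/EDTA/cysteine pH 6.0. Ki from IC50 via Cheng-Prusoff, averaging 2–4 curves.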

[3] = target: T2, recombinant human cathepsin S (Homo sapiens, UniProt P25774); experiment: Cathepsin S enzyme inhibition in vitro (kinetic fluorescence assay); assay type: biochemical; conditions: Ki(cathepsin S)/Ki(calpain) ratio
T2 construct: purchased Calbiochem 219343; host or cells: E. coli
T2 sequence (P25774 115-331): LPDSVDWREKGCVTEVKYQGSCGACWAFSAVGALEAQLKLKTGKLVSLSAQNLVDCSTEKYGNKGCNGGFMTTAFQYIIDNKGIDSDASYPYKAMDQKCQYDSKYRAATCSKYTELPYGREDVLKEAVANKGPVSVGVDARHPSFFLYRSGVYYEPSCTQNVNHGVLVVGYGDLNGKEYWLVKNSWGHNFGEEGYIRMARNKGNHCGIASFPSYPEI
How it was run: as §10

[4] = target: T3, cathepsin K activated from recombinant human procathepsin K (Homo sapiens, UniProt P43235); experiment: Cathepsin K enzyme inhibition in vitro (kinetic fluorescence assay); assay type: biochemical; conditions: Ki(cathepsin K)/Ki(calpain) ratio
T3 construct: purchased Calbiochem 342001; host or cells: E. coli
T3 sequence (P43235 115-329): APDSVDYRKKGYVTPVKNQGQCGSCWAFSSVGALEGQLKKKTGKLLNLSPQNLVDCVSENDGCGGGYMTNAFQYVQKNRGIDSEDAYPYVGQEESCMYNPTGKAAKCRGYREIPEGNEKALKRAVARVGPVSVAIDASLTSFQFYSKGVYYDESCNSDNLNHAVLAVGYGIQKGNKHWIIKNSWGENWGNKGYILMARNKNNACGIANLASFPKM
How it was run: as §10

[5] = target: T4, cathepsin B isolated from human liver (Homo sapiens, UniProt P07858); experiment: Cathepsin B enzyme inhibition in vitro (kinetic fluorescence assay); assay type: biochemical; conditions: Ki(cathepsin B)/Ki(calpain) ratio
T4 construct: cathepsin B—isolated from human liver; purchased Calbiochem 219362; host or cells: human liver (tissue-derived)
How it was run: as §10

[6] = target: T5, cathepsin L isolated from human liver (Homo sapiens, UniProt P07711); experiment: Cathepsin L enzyme inhibition in vitro (kinetic fluorescence assay); assay type: biochemical; conditions: Ki(cathepsin L)/Ki(calpain) ratio
T5 construct: cathepsin L—isolated from human liver; purchased Calbiochem 219402; host or cells: human liver (tissue-derived)
T5 sequence (P07711 114-333): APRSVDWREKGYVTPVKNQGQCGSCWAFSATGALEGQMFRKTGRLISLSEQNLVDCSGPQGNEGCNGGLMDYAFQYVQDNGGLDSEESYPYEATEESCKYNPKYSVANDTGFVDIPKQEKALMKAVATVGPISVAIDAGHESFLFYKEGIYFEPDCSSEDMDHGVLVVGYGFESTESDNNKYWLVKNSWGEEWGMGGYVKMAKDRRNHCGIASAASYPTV
How it was run: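 Inhibition of cathepsin L isolated from human liver was measured by kinetic fluorescence (excitation 390 nm, emission 460 nm) using 1 nM enzyme and 2 μM Z-Phe-Arg-AMC substrate (Km 2 μM) in 50 mM MES, 2 mM EDTA, 0.05% Brij 35, 2.5 mM L-cysteine, pH 6.0, at room temperature. Apparent Ki values came from IC50 values via the Cheng-Prussoff relation, averaged over 2 to 4 dose-effect plots.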

[7] = Assay for determining cytosolic clearance, human liver cytosol; assay type: in vitro ADME; conditions: 0.5 μM compound, 1 mg/ml human liver cytosol, 37° C., pH 7.5
Protocol: as §1, §2, §3, §4, §5, §6, §7, §8, §9

cyno cytCL [1]	Ki [2] [nM]	human cytCL [7]	SMILES	Sel cat. S [3]	Sel cat. K [4]	Sel cat. B [5]	Sel cat. L [6]
++ (0-18 μl/min/mg)	100 to 600	++ (0-14 μl/min/mg)	CCNC(=O)C(=O)C(Cc1ccccc1)NC(=O)[C@H]1CCC(=O)N1Cc1ccccc1 (stereo partly drawn) [Example 21, (2R)-1-Benzyl-N-[4-(ethylamino)-3,4-dioxo-1-phenylbutan-2-yl]-5-oxopyrrolidine-2-carboxamide]	++ (30<Ki(cathepsin B)/Ki(calpain)≦100)	+++ (Ki(cathepsin K)/Ki(calpain) ratio of >30)	+++ (Ki(cathepsin B)/Ki(calpain) ratio of >30)	+++ (Ki(cathepsin L)/Ki(calpain) ratio of >30)
+ (18-90 μl/min/mg)	< 50	+ (14-70 μl/min/mg)	COc1cccc(C(F)(F)F)c1CN1C(=O)CC[C@@H]1C(=O)NC(Cc1ccccc1)C(=O)C(N)=O (stereo partly drawn) [Example 50, (2R)—N-(4-Amino-3,4-dioxo-1-phenylbutan-2-yl)-5-oxo-1-[2-methoxy-6-(trifluoromethyl)benzyl]pyrrolidine-2-carboxamide]	+++ (Ki(cathepsin S)/Ki(calpain) ratio of >100)	+++ (Ki(cathepsin K)/Ki(calpain) ratio of >30)	+++ (Ki(cathepsin B)/Ki(calpain) ratio of >30)	+++ (Ki(cathepsin L)/Ki(calpain) ratio of >30)
